Data taken from patent publication US20060069132A1, “Azolecarboxamide herbicides” (priority 2004, published 2006).

Assays:
[1] = system: barnyardgrass; assay: Test B pre-/postemergence herbicide test; assay type: in vivo, Echinochloa crus-galli; conditions: for Plant response rating (0 to 100 scale), Barnyardgrass: 0 is no effect; for Plant response rating (0 to 100 scale), Barnyardgrass / Plant response rating, Barnyardgrass: preemergence; for Barnyardgrass plant response rating: postemergence; for Plant response rating, Barnyardgrass: 0 = no effect, 100 = complete control
Outline: (§1)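 Visual rating, 0 (no effect) to 100 (complete control), versus untreated controls after 13–15 d in greenhouse. Pre- and postemergence applications (postemergence plants 2–18 cm, 1–4 leaves); flooded paddy arm at 2-leaf stage. Compounds in non-phytotoxic solvent plus surfactant.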

[2] = system: Surinam grass; assay: Test B pre-/postemergence herbicide test; assay type: in vivo, Urochloa decumbens; conditions: for Plant response rating (0 to 100 scale), Surinam Grass: 0 is no effect; for Plant response rating (0 to 100 scale), Surinam Grass / Plant response rating, Surinam Grass: preemergence; for Surinam Grass plant response rating: postemergence; for Plant response rating, Surinam Grass: 0 = no effect, 100 = complete control
Outline: as §1

[3] = system: cocklebur; assay: Test B pre-/postemergence herbicide test; assay type: in vivo, Xanthium strumarium; conditions: for Plant response rating (0 to 100 scale), Cocklebur: 0 is no effect; for Plant response rating (0 to 100 scale), Cocklebur / Plant response rating, Cocklebur: preemergence; for Cocklebur plant response rating: postemergence; for Plant response rating, Cocklebur: 0 = no effect, 100 = complete control
Outline: as §1

[4] = system: corn; assay: Test B pre-/postemergence herbicide test; assay type: in vivo, Zea mays; conditions: for Plant response rating (0 to 100 scale), Corn: 0 is no effect; for Plant response rating (0 to 100 scale), Corn / Plant response rating, Corn: preemergence; for Corn plant response rating: postemergence; for Plant response rating, Corn: 0 = no effect, 100 = complete control
Outline: as §1

[5] = system: large crabgrass; assay: Test B pre-/postemergence herbicide test; assay type: in vivo, Digitaria sanguinalis; conditions: for Plant response rating (0 to 100 scale), Crabgrass, Large: 0 is no effect; for Plant response rating (0 to 100 scale), Crabgrass, Large / Plant response rating, Crabgrass, Large: preemergence; for Crabgrass, Large plant response rating: postemergence; for Plant response rating, Crabgrass, Large: 0 = no effect, 100 = complete control
Outline: as §1

[6] = system: giant foxtail; assay: Test B pre-/postemergence herbicide test; assay type: in vivo, Setaria faberi; conditions: for Plant response rating (0 to 100 scale), Foxtail, Giant: 0 is no effect; for Plant response rating (0 to 100 scale), Foxtail, Giant / Plant response rating, Foxtail, Giant: preemergence; for Foxtail, Giant plant response rating: postemergence; for Plant response rating, Foxtail, Giant: 0 = no effect, 100 = complete control
Outline: as §1

[7] = system: lambsquarters; assay: Test B pre-/postemergence herbicide test; assay type: in vivo, Chenopodium album; conditions: for Plant response rating (0 to 100 scale), Lambsquarters: 0 is no effect; for Plant response rating (0 to 100 scale), Lambsquarters / Plant response rating, Lambsquarters: preemergence; for Lambsquarters plant response rating: postemergence; for Plant response rating, Lambsquarters: 0 = no effect, 100 = complete control
Outline: as §1

[8] = system: morningglory; assay: Test B pre-/postemergence herbicide test; assay type: in vivo, Ipomoea coccinea; conditions: for Plant response rating (0 to 100 scale), Morningglory: 0 is no effect; for Plant response rating (0 to 100 scale), Morningglory / Plant response rating, Morningglory: preemergence; for Morningglory plant response rating: postemergence; for Plant response rating, Morningglory: 0 = no effect, 100 = complete control
Outline: as §1

[9] = system: pigweed; assay: Test B pre-/postemergence herbicide test; assay type: in vivo, Amaranthus retroflexus; conditions: for Plant response rating (0 to 100 scale), Pigweed: 0 is no effect; for Plant response rating (0 to 100 scale), Pigweed / Plant response rating, Pigweed: preemergence; for Pigweed plant response rating: postemergence; for Plant response rating, Pigweed: 0 = no effect, 100 = complete control
Outline: as §1

[10] = system: rice; assay: Test B pre-/postemergence herbicide test; assay type: in vivo, Oryza sativa; conditions: preemergence; for Plant response rating (0 to 100 scale), Rice: 125 g ai/ha, 0 is no effect, 100 is complete control; for Plant response rating, Rice: 500 g ai/ha, visual rating, 0 = no effect, 100 = complete control
Outline: as §1

[11] = system: velvetleaf; assay: Test B pre-/postemergence herbicide test; assay type: in vivo, Abutilon theophrasti; conditions: for Plant response rating (0 to 100 scale), Velvetleaf: 0 is no effect; for Velvetleaf plant response rating: postemergence
Outline: as §1

[12] = system: blackgrass; assay: Test B postemergence herbicide test; assay type: in vivo, Alopecurus myosuroides; conditions: postemergence
Outline: (§2)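 Visual ratings, 0 (no effect) to 100 (complete control), made versus controls after 13–15 d greenhouse. Paddy plants treated at 2-leaf stage; postemergence plants at 1- to 4-leaf stage, 2–18 cm tall.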

[13] = system: wheat; assay: Test B postemergence herbicide test; assay type: in vivo, Triticum aestivum; design: key to Wheat plant response rating: 0 = no effect, 100 = complete control; conditions: postemergence
Outline: (§3)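 After treating 2-leaf paddy plants or 2–18 cm postemergence plants (1 to 4 leaves) with formulated chemical, researchers kept them in a greenhouse for 13–15 days. Effects were judged visually versus controls: 0 indicates none, 100 total control.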

[14] = system: wild oat; assay: Test B postemergence herbicide test; assay type: in vivo, Avena fatua; conditions: postemergence
Outline: as §3

[15] = system: rice; assay: Test B flooded paddy test; assay type: in vivo, Oryza sativa; conditions: 1000 g ai/ha, scale 0 to 100 (0 no effect, 100 complete control)
Outline: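 Read-out: visual comparison with controls, scored 0 to 100, where 100 means complete control and 0 no effect. Formulated chemicals were applied postemergence to plants 2–18 cm tall (1- to 4-leaf), or to flooded-paddy plants at the 2-leaf stage, then held 13 to 15 days under glass.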

[16] = system: small flower umbrella sedge; assay: Test B flooded paddy test; assay type: in vivo, Cyperus difformis; conditions: 1000 g ai/ha, scale 0 to 100 (0 no effect, 100 complete control)
Outline: as §2

[17] = system: ducksalad; assay: Test B flooded paddy test; assay type: in vivo, Heteranthera limosa; conditions: 1000 g ai/ha, scale 0 to 100 (0 no effect, 100 complete control)
Outline: as §2

[18] = system: barnyardgrass; assay: Test B flooded paddy test; assay type: in vivo, Echinochloa crus-galli; conditions: 1000 g ai/ha, scale 0 to 100 (0 no effect, 100 complete control)
Outline: as §2

[19] = 125 g ai/ha, 100 is complete control
[20] = 125 g ai/ha, visual rating, scale 0 (no effect) to 100 (complete control)
[21] = 500 g ai/ha, scale 0 to 100, 0 is no effect, 100 is complete control
[22] = 125 g ai/ha, 100 is complete control, preemergence

CCc1cn(C(C)(C)C)nc1C(=O)Nc1cccc(C(=O)N(C)C)n1 [Compound 330]
0: Plant response rating (0 to 100 scale), Barnyardgrass [1, 19] | Barnyardgrass plant response rating [1, 20] | Plant response rating, Barnyardgrass ([1]; 500 g ai/ha, visual rating) | Barnyardgrass plant response rating [1, 21] | Plant response rating (0 to 100 scale), Surinam Grass [2, 19] | Surinam Grass plant response rating [2, 20] | Plant response rating, Surinam Grass ([2]; 500 g ai/ha, visual rating) | Surinam Grass plant response rating [2, 21] | Plant response rating (0 to 100 scale), Cocklebur [3, 19] | Cocklebur plant response rating [3, 20] | Plant response rating, Cocklebur ([3]; 500 g ai/ha, visual rating) | Cocklebur plant response rating [3, 21] | Plant response rating (0 to 100 scale), Corn [4, 19] | Corn plant response rating [4, 20] | Plant response rating, Corn ([4]; 500 g ai/ha, visual rating) | Corn plant response rating [4, 21] | Plant response rating (0 to 100 scale), Crabgrass, Large [5, 19] | Crabgrass, Large plant response rating [5, 20] | Plant response rating, Crabgrass, Large ([5]; 500 g ai/ha, visual rating) | Crabgrass, Large plant response rating [5, 21] | Plant response rating (0 to 100 scale), Foxtail, Giant [6, 19] | Foxtail, Giant plant response rating [6, 20] | Plant response rating, Foxtail, Giant ([6]; 500 g ai/ha, visual rating) | Foxtail, Giant plant response rating [6, 21] | Plant response rating (0 to 100 scale), Lambsquarters [7, 19] | Lambsquarters plant response rating [7, 20] | Plant response rating, Lambsquarters ([7]; 500 g ai/ha, visual rating) | Plant response rating (0 to 100 scale), Morningglory [8, 19] | Plant response rating, Morningglory ([8]; 500 g ai/ha, visual rating) | Plant response rating (0 to 100 scale), Pigweed [9, 19] | Pigweed plant response rating [9, 20] | Plant response rating, Pigweed ([9]; 500 g ai/ha, visual rating) | Pigweed plant response rating [9, 21] | Plant response rating (0 to 100 scale), Rice [10] | Plant response rating, Rice [10] | Plant response rating (0 to 100 scale), Velvetleaf [11, 22] | Velvetleaf plant response rating [11, 20] | Plant response rating, Velvetleaf ([11]; 500 g ai/ha, visual rating, 0 = no effect, 100 = complete control, preemergence) | Blackgrass plant response rating [12, 20] | Blackgrass plant response rating [12, 21] | Wheat plant response rating [13, 20] | Wheat plant response rating [13, 21] | Oat, Wild plant response rating [14, 20] | Rice plant response rating [15] | Sedge, Umbrella plant response rating [16] | Ducksalad plant response rating [17] | Barnyardgrass plant response rating [18]
10: Lambsquarters plant response rating [7, 21] | Morningglory plant response rating [8, 20] | Morningglory plant response rating [8, 21] | Velvetleaf plant response rating [11, 21]
20: Oat, Wild plant response rating [14, 21]

CCNC(=O)c1cccc(NC(=O)c2cc(C(C)(C)C)n[nH]2)c1 [Compound 351]
50: Pigweed plant response rating [9, 21]
10: Corn plant response rating [4, 21] | Crabgrass, Large plant response rating [5, 21] | Lambsquarters plant response rating [7, 21]
0: Plant response rating (0 to 100 scale), Barnyardgrass [1, 19] | Barnyardgrass plant response rating [1, 20] | Plant response rating, Barnyardgrass ([1]; 500 g ai/ha, visual rating) | Barnyardgrass plant response rating [1, 21] | Plant response rating (0 to 100 scale), Surinam Grass [2, 19] | Surinam Grass plant response rating [2, 20] | Plant response rating, Surinam Grass ([2]; 500 g ai/ha, visual rating) | Surinam Grass plant response rating [2, 21] | Plant response rating (0 to 100 scale), Cocklebur [3, 19] | Cocklebur plant response rating [3, 20] | Plant response rating, Cocklebur ([3]; 500 g ai/ha, visual rating) | Cocklebur plant response rating [3, 21] | Plant response rating (0 to 100 scale), Corn [4, 19] | Corn plant response rating [4, 20] | Plant response rating, Corn ([4]; 500 g ai/ha, visual rating) | Plant response rating (0 to 100 scale), Crabgrass, Large [5, 19] | Crabgrass, Large plant response rating [5, 20] | Plant response rating, Crabgrass, Large ([5]; 500 g ai/ha, visual rating) | Plant response rating (0 to 100 scale), Foxtail, Giant [6, 19] | Foxtail, Giant plant response rating [6, 20] | Plant response rating, Foxtail, Giant ([6]; 500 g ai/ha, visual rating) | Foxtail, Giant plant response rating [6, 21] | Plant response rating (0 to 100 scale), Lambsquarters [7, 19] | Lambsquarters plant response rating [7, 20] | Plant response rating, Lambsquarters ([7]; 500 g ai/ha, visual rating) | Plant response rating (0 to 100 scale), Morningglory [8, 19] | Morningglory plant response rating [8, 20] | Plant response rating, Morningglory ([8]; 500 g ai/ha, visual rating) | Morningglory plant response rating [8, 21] | Plant response rating (0 to 100 scale), Pigweed [9, 19] | Pigweed plant response rating [9, 20] | Plant response rating, Pigweed ([9]; 500 g ai/ha, visual rating) | Plant response rating (0 to 100 scale), Rice [10] | Plant response rating, Rice [10] | Plant response rating (0 to 100 scale), Velvetleaf [11, 22] | Velvetleaf plant response rating [11, 20] | Velvetleaf plant response rating [11, 21] | Blackgrass plant response rating [12, 20] | Blackgrass plant response rating [12, 21] | Wheat plant response rating [13, 20] | Wheat plant response rating [13, 21] | Oat, Wild plant response rating [14, 20] | Oat, Wild plant response rating [14, 21] | Rice plant response rating [15] | Sedge, Umbrella plant response rating [16] | Ducksalad plant response rating [17] | Barnyardgrass plant response rating [18]
